As a reminder, the Inhibition is the relative decrease from the control value, in per cent. A higher Inhibition goes with a response far below the control. As usually defined, the IC50 is the point on the concentration scale where inhibition reaches its midpoint. By IC90 is commonly meant the concentration needed for an effect of 90%.

The results in this text go back to ChEMBL document CHEMBL1126998, “-lactam derivatives from 1-H-1,2-diazepines” (Bioorg Med Chem Lett, 1993).

Assay [1] deals with JM1. Kind of assay: Tested for antiviral uM; Activity expressed as % inhibition of syncytium. It is filed as functional, Homo sapiens.
For assay [2], the system named is JM1. Kind of assay: (§1) Tested for antiviral activity of compound against HIV (Strain GB 8) in JM cells. It counts as functional, cell-based. Conditions: Homo sapiens.
Assay [3] concerns JM1. Described as §1. It counts as functional, Homo sapiens.
For assay [4], the system named is JM1. The assay is described as §1. The note with it: Homo sapiens. It counts as functional, cell-based. This is another data set of the same source.
The test system of assay [5] is JM1. The assay can be described thus: Tested for the cytotoxicity against JM cells at 100 uM in an MTT assay. It counts as functional, Homo sapiens. (Formazan colour is commonly taken as a measure of viable cells.)

Values joined by “and” are separate entries in the source; they are usually repeats but may differ in a detail not shown here. Identical values can stand only once.

In the case of `COC(=O)NN1C(=O)[C@H](C)[C@H]1[C@@H]1NC[C@@H](O)[C@H]1O.Cl`, the Inhibition in the assay on JM1 [1] was 20% and 27%.

For the molecule `O[C@H]1[C@H](O)[C@@H](O)CN2CC[C@H](O)[C@H]12` [CASTANOSPERMINE], the results for the IC50 with JM1 [2] and with JM1 [4] were 7.3 µM and 8.8 µM, respectively. Besides, the concentration for an effect of 90% (IC90) in the assay on JM1 [3] is 24.5 µM; with JM1 [3] (Homo sapiens, JM1), 28.2 µM. In addition, in the assay on JM1 [5], the Cytotoxicity is 0% and 4%.
